Assay results from US9533969B2, “Materials and method for inhibiting replication protein A and uses thereof” (Indiana University Research and Technology Corp., priority 2010, dated 2017).
Values joined by “and” are separate entries in the source; they are usually repeats but may differ in a detail not shown here. Equal entries are not always repeated. Values belong to the compound of their own block, whether it stands above or below them.

Experiments:
[1] = target: Human RPA (Homo sapiens (Human), UniProt P27694); experiment: EMSA of inhibition of RPA binding to ssDNA; conditions: for IC50: 25 nM RPA, 34-base DNA, 4 parameter logistic fit, read-out: IC50 (μM) In vitro; for inhibition at 100 µM: read-out: inhibition at the highest concentration tested
Procedure: Small molecule inhibitors were obtained from ChemDiv and resuspended in DMSO. Compound TDLR-505 was independently synthesized and structure confirmed by mass spectrometry analysis. Human RPA was purified using an E. coli over expression system as previously described (7). EMSAs were performed in 20 μL reactions containing 25 nM RPA, 25 nM 5′[^32P]-labeled 34-base […] DNA as previously described (7). The final concentration of DMSO was 1%.
(§1) Referring now to TABLE 1, the in vitro IC50 was determined by EMSA analysis as described in FIG. 1A. The cellular IC50 value was determined by treating H460 cells with the indicated compounds and analyzing annexinV/PI staining as described in Methods. The in vitro and cellular data was analyzed using standard 4 parameter logistic-curve. The IC50 values and standard error of the fit were determined from this analysis.
Referring now to FIGS. 2C, D and E, EMSA analysis of compound TDLR-505, briefly, increasing concentrations of compound TDRL-505 were pre-incubated with RPA and DNA binding activity was assessed via EMSA using a 34-base ssDNA substrate. Referring now to FIG. 2D, the average and standard deviation of each point are presented. The data was fit to a standard 4 parameter logistic curve with an N=4.

[2] = tested on: H460 NSCLC cell line; experiment: Annexin V/PI flow cytometry, induction of cell death; format: cell-based, human; conditions: H460 cells; for IC50: Homo sapiens, NCI-H460, 48 hour exposure, annexinV/PI staining, read-out: IC50 (μM) Cellular
Procedure: (§2) H460 cells were analyzed for apoptosis using an Annexin V-FITC/Propidium iodide (PI) Vybrant Apoptosis Assay Kit (Invitrogen), according to manufacturer's instructions. Cells were plated at a density of 1×10^4 cells per cm^2 and allowed to adhere for 24 hours and then treated with compound TDLR-505 for 48 hours. Following plating and treatment of H460 cells as described above, adherent and non-adherent cells were collected, processed, and analyzed on a BD FACScan flow cytometer. Data was analyzed using WinMDI software (http://facs.scripps.edu/software.html). Cell cycle analysis was performed by PI staining Briefly, cells were plated and treated with compound collected and then washed twice with PBS-EDTA supplemented with 1% BSA. Cells were fixed in 70% EtOH at −20° C. while vortexing followed by incubation on ice for 30 minutes. Cells were then collected and stained with PI solution (10 μg/mL PI and 25 μg/mL RNaseA in PBS-EDTA supplemented with 1% BSA). Cells were analyzed on a Becton Dickinson FACScan flow cytometer. Cells were gated and analyzed on a histogram with events plotted against the FL2-A parameter. Cell cycle distribution was analyzed using ModFit software. G2 arrest was induced by treatment with 0.8 μg/mL nocodazole for 12 hours (10). Cells were then washed with PBS and treated with either vehicle or compound TDLR-505 (100 μM). Cells were harvested and analyzed for cell cycle distribution as described above.
as §1
Referring now to FIGS. 4A, 4B, 4C and 4D, the effects of compound TDRL-505 on induction of cell death and cell cycle progression in a H460 NSCLC cell line was measured. Briefly, H460 cells were treated with compound TDRL-505 for 48 hours and analyzed for cell viability via staining with AnnexinV/PI and presented as dot plots (see FIG. 3A). Referring now to FIG. 4B, the data from FIG. 4A was quantified and the percentage of Annexin-/PI-cells (lower left quadrant), indicating live cells, was calculated. The average±SD (N=4) are presented and the data was fit to a 4-parameter logistic curve.

[3] = tested on: H460 NSCLC cell line; experiment: Crystal violet staining cell viability assay; format: cell-based; conditions: Homo sapiens, NCI-H460; data not shown
[4] = tested on: A549 NSCLC cell line; experiment: Cytotoxicity in A549 cells; format: cell-based; conditions: data not shown
[5] = tested on: peripheral blood mononuclear cells (PBMCs); experiment: Cytotoxicity in freshly isolated PBMCs; format: cell-based; conditions: non-cancerous cells, data not shown
[6] = tested on: RPA; experiment: Indirect immunofluorescence of RPA in H460 cells; format: cell-based, human; conditions: 50 μM, 3 hours
Procedure: H460 cells were plated on chamber slides (LabTek) as described above. Cells were then treated for 3 hours with either 50 μM of compound TDLR-505 or vehicle as indicated and following treatment, cells were fixed in 4% paraformaldehyde at 25° C. for 3 minutes followed by washing in 0.2% Triton X-100 for 2 minutes at 4° C. The slides were then blocked in 15% FBS in PBS for 1 hour at 25° C. and then incubated with anti-RPA 34 primary antibody (Neomarkers) at a dilution of 1:500 in 15% FBS for 1 hour. Slides were then washed 3×10 minutes with 15% FBS and then incubated with Alexa Fluor-594 goat-anti-mouse secondary antibody (Invitrogen) at a dilution of 1:300 for 1 hour. Slides were again washed and stained with 300 nM DAPI diluted in PBS-EDTA for five minutes. […] Slides were visualized and images analyzed and quantified using ImageJ software.
These cellular effects seen following treatment with compound TDLR-505 correlate with an inability of RPA to interact with DNA which could then result in numerous possibilities including degradation or redistribution of RPA within the cell. […] Referring now to FIG. 4C, H460 cells were treated with 50 μM compound TDLR-505 or vehicle for 3 hours and analyzed for RPA expression and localization by indirect immunofluorescence using an Alexa Fluor594 secondary antibody (red). […] RPA expression was assessed via western blot analysis probing for the p34 subunit. […]

[7] = tested on: RPA p34; experiment: Western blot of RPA p34 in H460 cells; format: cell-based, human; conditions: 100 μM, 6 hours, without or with 25 μM etoposide
Procedure: H460 cells were plated and treated with either vehicle or 100 μM compound TDLR-505 in the presence or absence of 25 μM etoposide for 6 hours and then processed for western blot analysis using a RIPA lysis and extraction procedure. RPA was detected with an anti-RPA p34 antibody (Neomarkers) and goat anti-mouse-HRP secondary (Santa Cruz). Bands were visualized using chemiluminescence detection.
These cellular effects seen following treatment with compound TDLR-505 correlate with an inability of RPA to interact with DNA which could then result in numerous possibilities including degradation or redistribution of RPA within the cell. Indirect immunofluorescence was used to assess how inhibition of RPA binding influences cellular localization. Referring now to FIG. 4C, H460 cells were treated with 50 μM compound TDLR-505 or vehicle for 3 hours and analyzed for RPA expression and localization by indirect immunofluorescence using an Alexa Fluor594 secondary antibody (red). Slides were counter stained with DAPI (blue) and images merged. Magnification of the boxed cells is presented below the low magnification images. […] (FIG. 4C). […] Referring now to FIG. 4D, H460 cells were treated with vehicle or 100 μM compound TDLR-505 without or with etoposide (25 μM) as indicated in the figure. RPA expression was assessed via western blot analysis probing for the p34 subunit. […]

[8] = tested on: H460 NSCLC cells; experiment: Cell cycle distribution by PI flow cytometry; format: cell-based, human
Procedure: as §2, with “Cells were then collected and stained with PI solution (10 μg/mL PI and 25 μg/mL RNaseA in PBS-EDTA supplemented with 1% BSA).” left out, “G2 arrest was induced by treatment with 0.8 μg/mL nocodazole for 12 hours (10). Cells were then washed with PBS and treated with either vehicle or compound TDLR-505 (100 μM).” left out
Referring now to FIG. 5A. H460 NSCLC cells were treated with 0 and 75 μM of compound TDLR-505 for 48 hours and then analyzed for cell cycle distribution using flow cytometry. […] Cells were then harvested and analyzed for cell cycle distribution using flow cytometry. […]

[9] = tested on: H460 cells; experiment: Combination index analysis with cisplatin or etoposide; format: cell-based, human; conditions: 48 hours
Procedure: In addition to its essential role in DNA replication, RPA is required for the repair of bulky DNA adducts as well as DNA breaks induced by various types of exogenous and endogenous agents. […] In order to determine the effect of RPA inhibition on cellular sensitivity to cisplatin, the combination index (CI) (20) was measured. Referring now to FIG. 6. As illustrated in this experiment, compound TDLR-505 acts synergistically with both cisplatin and etoposide in H460 cells. H460 cells were treated with increasing fractions of the IC50 concentration of either cisplatin or etoposide with compound TDLR-505 for 48 hours. After treatment, cells were harvested and analyzed by annexin V/PI flow cytometry. Open circles indicate CI analysis of cisplatin with TDLR-505 and closed circles represent etoposide with TDLR-505. The combination index analysis was performed as previously described (20). The data are presented as the average±SD from (N=3). When cisplatin and compound TDLR-505 were used in combination, cell viability was decreased to a level that was greater than that induced by either agent alone, resulting in a synergy between the two compounds and CI of 0.4 at the highest fraction of cells affected. […] The ability of compound TDLR-505 to synergize with etoposide was also examined. Etoposide induces replication fork arrest and DNA damage response, both cellular processes that require RPA (21).

[10] = tested on: NOD/SCID mice; conditions: mouse, in vivo
Procedure: Mice were monitored for signs of overt toxicity and bodyweights measured three times per week. Mice were sacrificed and gross necroscopy performed to assess organ weights and inspected for signs of toxicity. […] NOD/SCID mice were then implanted with 5×10^6 H460 cells in 0.2 ml of 50% Matrigel subcutaneously. Tumors were allowed to develop for 7 days and TDRL-505 was administered via oral gavage 2× per week for one week. Tumor volumes were calculated by measuring the width and the length of the tumors and using these measurements in the equation: vol.=1×w^2/2.
Referring now to Table 3. […] Oral dosing in 0.1% Tween 80/methylcellulose was also well tolerated up to 800 mg/kg.

[11] = tested on: H460 cells; experiment: H460 NSCLC mouse xenograft model; format: in vivo, NOD/SCID mice; conditions: oral dosing
Description: Mice that had been implanted with a human NSCLC tumor cells were subjected to a regime of oral dosing. The tumors were allowed to grow to 100 mm3 after which treatment with TDRL-505 or vehicle was commenced.

[12] = Pharmacokinetic analysis in mice; format: in vivo; conditions: for AUC(0-t) / Cmax / Tmax / half-life: mouse, serum
Procedure: Pharmacokinetic analysis. TDRL-505 was administered to mice at 200 mg/kg either ip or po and blood drawn at 1, 2, 4, 8, 24 and 48 hours post treatment. Serum concentration of TDRL-505 was measured using a HPLC MS/MS protocol and PK parameters analysis using on-compartmental analysis.
Based on the in vivo anticancer activity of TRL-505 a comparison of pharmacokinetic parameters with both ip and po dosing regimens was made. Naive mice were given a single dose and as described in Table 3, blood was drawn at various time intervals and TRDL-505 concentration determined via a HPCL/MSMS protocol developed for this compound.

[13] = 200 mg/Kg PO, Methylcellulose/DMSO

Human RPA, sequence (P27694 whole entry): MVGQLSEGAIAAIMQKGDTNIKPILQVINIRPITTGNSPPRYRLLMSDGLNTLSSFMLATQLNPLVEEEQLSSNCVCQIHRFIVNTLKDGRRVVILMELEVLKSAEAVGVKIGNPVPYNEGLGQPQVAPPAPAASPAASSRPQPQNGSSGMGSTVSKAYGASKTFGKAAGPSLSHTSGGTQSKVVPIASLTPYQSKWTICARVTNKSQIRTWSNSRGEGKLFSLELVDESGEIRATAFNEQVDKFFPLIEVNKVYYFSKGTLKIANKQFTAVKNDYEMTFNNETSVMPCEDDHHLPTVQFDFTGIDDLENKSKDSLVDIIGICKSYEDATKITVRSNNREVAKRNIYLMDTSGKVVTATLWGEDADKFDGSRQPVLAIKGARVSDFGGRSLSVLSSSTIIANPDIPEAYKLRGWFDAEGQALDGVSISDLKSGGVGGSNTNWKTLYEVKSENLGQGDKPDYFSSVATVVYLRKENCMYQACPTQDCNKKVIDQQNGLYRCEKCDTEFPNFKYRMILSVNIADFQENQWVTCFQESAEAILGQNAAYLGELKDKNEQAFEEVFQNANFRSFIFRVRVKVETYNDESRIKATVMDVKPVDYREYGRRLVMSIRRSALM
Human RPA, sequence (P15927 whole entry partner): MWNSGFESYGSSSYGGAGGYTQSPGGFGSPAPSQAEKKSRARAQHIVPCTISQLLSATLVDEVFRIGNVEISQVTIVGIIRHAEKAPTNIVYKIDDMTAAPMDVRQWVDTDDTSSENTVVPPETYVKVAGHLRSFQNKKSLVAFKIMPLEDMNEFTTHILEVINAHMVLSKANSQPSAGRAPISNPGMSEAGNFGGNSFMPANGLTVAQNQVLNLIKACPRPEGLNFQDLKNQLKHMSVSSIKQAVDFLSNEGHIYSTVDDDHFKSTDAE
Human RPA, sequence (P35244 whole entry partner): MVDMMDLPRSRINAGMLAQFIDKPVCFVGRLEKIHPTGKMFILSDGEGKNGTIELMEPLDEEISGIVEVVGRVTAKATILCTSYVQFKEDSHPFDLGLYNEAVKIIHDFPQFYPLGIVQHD

Structure (SMILES): CCOc1ccc2cc(C3CC(c4ccc(Br)cc4)=NN3C(=O)CCC(=O)O)c(Cl)nc2c1 (stereo not drawn) [TDRL-505]
IC50 [1]: 13 µM and 12.9 µM
IC50 [2]: 30.8 ± 1.7 µM
IC50 [3]: 64 µM
cytotoxic effect in A549 cells (in words) [4]: A similar result
cytotoxic activity in PBMCs (in words) [5]: minimal cytotoxic activity
intensity of RPA staining vs vehicle (in words) [6]: decrease in the intensity of RPA staining
cells with RPA staining intensity >70% of the maximum ([6]; vehicle 23%): 15%
RPA expression (p34 western blot, in words) [7]: not degraded or reduced in expression
cell cycle distribution, asynchronous culture (in words) ([8]; 75 μM, 48 hours): increase in the proportion of cells in G1-phase
cell cycle progression after release from nocodazole G2 arrest (in words) ([8]; 100 μM, 4, 8 and 12 hours): did not enter S-phase even 12 hours post release
interaction with cisplatin at lower fractions of cells affected (in words) ([9]; CI values greater than one): additive and then antagonistic
interaction with etoposide (in words) ([9]; all fractions of cells affected): synergistic activity
combination index (CI) with cisplatin ([9]; highest fraction of cells affected): 0.4
well tolerated dose, IP ([10]; ip): up to 400 mg/kg
well tolerated dose, oral ([10]; po): up to 800 mg/kg
tumor growth in individual mice vs vehicle (in words) ([11]; FIG. 7B): significant reduction in tumor growth
tumor growth vs vehicle control (in words) ([11]; group mean, FIG. 7A): reduction in tumor growth
Cl/F ([12]; 200 mg/Kg IP, Tween80/DMSO): 8.29 mL/h
Vdss ([12]; 200 mg/Kg IP, Tween80/DMSO): 0.11 L
Cl/F [12, 13]: 202.33 mL/h
Vdss [12, 13]: 0.88 L
AUC(0-t) ([12]; 200 mg/Kg IP, Tween80/DMSO): 577 µg·h/mL
Cmax ([12]; 200 mg/Kg IP, Tween80/DMSO): 31700 ng/mL
Tmax ([12]; 200 mg/Kg IP, Tween80/DMSO): 8 h
half-life ([12]; 200 mg/Kg IP, Tween80/DMSO): 7.13 h
AUC(0-t) [12, 13]: 25 µg·h/mL
Cmax [12, 13]: 6400 ng/mL
Tmax [12, 13]: 1 h
half-life [12, 13]: 2.62 h

IC50 [1]: > 100 µM
inhibition at 100 µM [1]: 9%
Structure (SMILES): CCN(CC)c1ccc(C2CC(c3ccc(Br)cc3)=NN2C(=O)CCC(=O)O)cc1 (stereo not drawn) [TDRL-518]

IC50 [1]: 20.3 ± 10.7 µM
Structure (SMILES): Cc1ccc(C2=NN(C(=O)CCC(=O)O)C(c3cn(-c4ccccc4)nc3-c3ccc(C)cc3)C2)cc1 (stereo not drawn) [TDRL-520]
IC50 [2]: 49.9 ± 2.5 µM

Structure (SMILES): COc1ccc(C2=NN(C(=O)CCC(=O)O)C(c3cn(-c4ccccc4)nc3-c3ccc(C)cc3)C2)cc1 (stereo not drawn) [TDRL-521]
IC50 [1]: 71.7 ± 33.9 µM
IC50 [2]: 56.9 ± 6.7 µM

Structure (SMILES): Cc1ccc(-c2nn(-c3ccccc3)cc2C2CC(c3ccc(Br)cc3)=NN2C(=O)CCC(=O)O)cc1 (stereo not drawn) [TDRL-522]
IC50 [1]: 56.1 ± 6.7 µM
IC50 [2]: 38 ± 32 µM

Structure (SMILES): COc1ccc(-c2nn(-c3ccccc3)cc2C2CC(c3ccc(Br)cc3)=NN2C(=O)CCC(=O)O)cc1 (stereo not drawn) [TDRL-523]
IC50 [1]: > 100 µM
inhibition at 100 µM [1]: 36%
inhibition of RPA DNA binding (in words) ([1]; full length RPA heterotrimer): minimal inhibition
cellular activity (in words) [2]: modest cellular activity
IC50 [2]: 31 ± 5.2 µM
